Publication PMC11845477, “Exploring the principles behind antibiotics with limited resistance” (Nature Communications, 2025)

Assays:
[1] = system: E. coli ATCC 25922 (SEN) and E. coli NCTC13846 (MDR); experiment: Adaptive laboratory evolution (ALE), relative MIC of evolved lines; assay type: cell-based, Escherichia coli
How it was run: (§1)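 Ten parallel populations per antibiotic–ancestor pair were evolved in MHB at 37 °C, starting near 50% growth-inhibiting drug. Every 72 h they were passaged into 0.5–2.5× increasing concentrations, keeping the highest-drug well with OD600 > 0.2.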

[2] = system: A. baumannii ATCC 17978 (SEN) and A. baumannii ATCC BAA-1605 (MDR); experiment: as above; assay type: cell-based, Acinetobacter baumannii
How it was run: as §1

[3] = EC-MDR (Escherichia coli NCTC 13846), evolved line 6 adapted to the named antibiotic
[4] = EC-MDR (Escherichia coli NCTC 13846), evolved line 7 adapted to the named antibiotic
[5] = EC-MDR (Escherichia coli NCTC 13846), evolved line 9 adapted to the named antibiotic
[6] = EC-MDR, Escherichia coli NCTC 13846, evolved line 1 versus ancestor
[7] = EC-MDR, Escherichia coli NCTC 13846, evolved line 2 versus ancestor
[8] = EC-MDR, Escherichia coli NCTC 13846, evolved line 3 versus ancestor
[9] = EC-MDR, Escherichia coli NCTC 13846, evolved line 4 versus ancestor
[10] = EC-MDR, Escherichia coli NCTC 13846, evolved line 6 versus ancestor
[11] = EC-MDR, Escherichia coli NCTC 13846, evolved line 7 versus ancestor
[12] = EC-MDR, Escherichia coli NCTC 13846, evolved line 8 versus ancestor
[13] = EC-MDR, Escherichia coli NCTC 13846, evolved line 9 versus ancestor
[14] = EC-SEN (Escherichia coli ATCC 25922), evolved line 2 adapted to the named antibiotic
[15] = EC-SEN (Escherichia coli ATCC 25922), evolved line 4 adapted to the named antibiotic
[16] = EC-SEN (Escherichia coli ATCC 25922), evolved line 5 adapted to the named antibiotic
[17] = EC-SEN, Escherichia coli ATCC 25922, evolved line 2 versus ancestor
[18] = EC-SEN, Escherichia coli ATCC 25922, evolved line 4 versus ancestor
[19] = EC-SEN, Escherichia coli ATCC 25922, evolved line 5 versus ancestor
[20] = EC-SEN, Escherichia coli ATCC 25922, evolved line 7 versus ancestor
[21] = EC-SEN, Escherichia coli ATCC 25922, evolved line 8 versus ancestor
[22] = EC-SEN, Escherichia coli ATCC 25922, evolved line 10 versus ancestor
[23] = AB-SEN (Acinetobacter baumannii ATCC 17978), evolved line 4 adapted to the named antibiotic
[24] = AB-SEN (Acinetobacter baumannii ATCC 17978), evolved line 7 adapted to the named antibiotic
[25] = AB-SEN, Acinetobacter baumannii ATCC 17978, evolved line 2 versus ancestor
[26] = AB-SEN, Acinetobacter baumannii ATCC 17978, evolved line 3 versus ancestor
[27] = AB-SEN, Acinetobacter baumannii ATCC 17978, evolved line 4 versus ancestor
[28] = AB-SEN, Acinetobacter baumannii ATCC 17978, evolved line 6 versus ancestor
[29] = AB-SEN, Acinetobacter baumannii ATCC 17978, evolved line 7 versus ancestor
[30] = AB-SEN, Acinetobacter baumannii ATCC 17978, evolved line 8 versus ancestor
[31] = AB-SEN, Acinetobacter baumannii ATCC 17978, evolved line 9 versus ancestor
[32] = AB-SEN, Acinetobacter baumannii ATCC 17978, evolved line 10 versus ancestor

CNC(C)C1CCC(N)C(OC2C(N)CC(N)C(OC3OCC(C)(O)C(NC)C3O)C2O)O1 (stereo not shown) [Gentamicin]
1.505: Relative MIC (log10) [1, 4] | Relative MIC (log10) [1, 14]
512: Relative MIC [2, 25] | Relative MIC [2, 27] | Relative MIC ([2]; AB-SEN, Acinetobacter baumannii ATCC 17978, evolved line 5 versus ancestor) | Relative MIC [2, 29] | Relative MIC [2, 32] | Relative MIC ([2]; Acinetobacter baumannii ATCC 17978 (AB-SEN), evolved line 2) | Relative MIC ([2]; Acinetobacter baumannii ATCC 17978 (AB-SEN), evolved line 4) | Relative MIC ([2]; Acinetobacter baumannii ATCC 17978 (AB-SEN), evolved line 5) | Relative MIC ([2]; Acinetobacter baumannii ATCC 17978 (AB-SEN), evolved line 7) | Relative MIC ([2]; Acinetobacter baumannii ATCC 17978 (AB-SEN), evolved line 10)
64: Relative MIC [1, 6] | Relative MIC [1, 8] | Relative MIC [1, 9] | Relative MIC ([1]; EC-MDR, Escherichia coli NCTC 13846, evolved line 5 versus ancestor) | Relative MIC [1, 10] | Relative MIC [1, 12] | Relative MIC [1, 13] | Relative MIC [1, 19] | Relative MIC [1, 21] | Relative MIC ([1]; EC-SEN, Escherichia coli ATCC 25922, evolved line 9 versus ancestor) | Relative MIC ([1]; Escherichia coli ATCC 25922 (EC-SEN), evolved line 5) | Relative MIC ([1]; Escherichia coli ATCC 25922 (EC-SEN), evolved line 8) | Relative MIC ([1]; Escherichia coli ATCC 25922 (EC-SEN), evolved line 9) | Relative MIC ([1]; Escherichia coli NCTC 13846 (EC-MDR), evolved line 1) | Relative MIC ([1]; Escherichia coli NCTC 13846 (EC-MDR), evolved line 3) | Relative MIC ([1]; Escherichia coli NCTC 13846 (EC-MDR), evolved line 4) | Relative MIC ([1]; Escherichia coli NCTC 13846 (EC-MDR), evolved line 5) | Relative MIC ([1]; Escherichia coli NCTC 13846 (EC-MDR), evolved line 6) | Relative MIC ([1]; Escherichia coli NCTC 13846 (EC-MDR), evolved line 8) | Relative MIC ([1]; Escherichia coli NCTC 13846 (EC-MDR), evolved line 9)
128: Relative MIC [1, 18] | Relative MIC ([1]; EC-SEN, Escherichia coli ATCC 25922, evolved line 6 versus ancestor) | Relative MIC ([1]; Escherichia coli ATCC 25922 (EC-SEN), evolved line 4) | Relative MIC ([1]; Escherichia coli ATCC 25922 (EC-SEN), evolved line 6) | Relative MIC [2, 30] | Relative MIC [2, 31] | Relative MIC ([2]; Acinetobacter baumannii ATCC 17978 (AB-SEN), evolved line 8) | Relative MIC ([2]; Acinetobacter baumannii ATCC 17978 (AB-SEN), evolved line 9)
16: Relative MIC [1, 22] | Relative MIC ([1]; Escherichia coli ATCC 25922 (EC-SEN), evolved line 10)
2.107: Relative MIC (log10) [1, 15] | Relative MIC (log10) ([1]; EC-SEN (Escherichia coli ATCC 25922), evolved line 6 adapted to the named antibiotic)
1.806: Relative MIC (log10) ([1]; EC-MDR (Escherichia coli NCTC 13846), evolved line 3 adapted to the named antibiotic) | Relative MIC (log10) ([1]; EC-MDR (Escherichia coli NCTC 13846), evolved line 5 adapted to the named antibiotic) | Relative MIC (log10) [1, 3] | Relative MIC (log10) [1, 5] | Relative MIC (log10) [1, 16] | Relative MIC (log10) ([1]; EC-SEN (Escherichia coli ATCC 25922), evolved line 9 adapted to the named antibiotic)
256: Relative MIC [2, 26] | Relative MIC [2, 28] | Relative MIC ([2]; Acinetobacter baumannii ATCC 17978 (AB-SEN), evolved line 3) | Relative MIC ([2]; Acinetobacter baumannii ATCC 17978 (AB-SEN), evolved line 6)
32: Relative MIC [1, 7] | Relative MIC [1, 11] | Relative MIC [1, 17] | Relative MIC ([1]; EC-SEN, Escherichia coli ATCC 25922, evolved line 3 versus ancestor) | Relative MIC [1, 20] | Relative MIC ([1]; Escherichia coli ATCC 25922 (EC-SEN), evolved line 2) | Relative MIC ([1]; Escherichia coli ATCC 25922 (EC-SEN), evolved line 3) | Relative MIC ([1]; Escherichia coli ATCC 25922 (EC-SEN), evolved line 7) | Relative MIC ([1]; Escherichia coli NCTC 13846 (EC-MDR), evolved line 2) | Relative MIC ([1]; Escherichia coli NCTC 13846 (EC-MDR), evolved line 7)
2.709: Relative MIC (log10) ([2]; AB-SEN (Acinetobacter baumannii ATCC 17978), evolved line 2 adapted to the named antibiotic) | Relative MIC (log10) [2, 23] | Relative MIC (log10) ([2]; AB-SEN (Acinetobacter baumannii ATCC 17978), evolved line 5 adapted to the named antibiotic) | Relative MIC (log10) [2, 24] | Relative MIC (log10) ([2]; AB-SEN (Acinetobacter baumannii ATCC 17978), evolved line 10 adapted to the named antibiotic)

O=c1ccc2ncc(=O)n3c2n1C[C@H]3CN1CCC(NCc2cc3c(cn2)OCCC3)CC1 [Gepotidacin]
8: Relative MIC [1, 8] | Relative MIC ([1]; EC-MDR, Escherichia coli NCTC 13846, evolved line 3)
1.806: Relative MIC (log10) [1, 14] | Relative MIC (log10) ([2]; AB-SEN (Acinetobacter baumannii ATCC 17978), evolved line 1 adapted to the named antibiotic) | Relative MIC (log10) [2, 23] | Relative MIC (log10) [2, 24] | Relative MIC (log10) ([2]; AB-SEN (Acinetobacter baumannii ATCC 17978), evolved line 8 adapted to the named antibiotic) | Relative MIC (log10) ([2]; AB-SEN (Acinetobacter baumannii ATCC 17978), evolved line 9 adapted to the named antibiotic)
128: Relative MIC ([1]; EC-SEN (Escherichia coli ATCC 25922), evolved line 4) | Relative MIC ([1]; EC-SEN (Escherichia coli ATCC 25922), evolved line 5) | Relative MIC ([1]; EC-SEN (Escherichia coli ATCC 25922), evolved line 10) | Relative MIC ([1]; EC-SEN, Escherichia coli ATCC 25922, evolved line 1 versus ancestor) | Relative MIC [1, 18] | Relative MIC [1, 19] | Relative MIC [1, 22] | Relative MIC ([1]; EC-SEN, Escherichia coli ATCC 25922, evolved line 1) | Relative MIC ([2]; AB-SEN (Acinetobacter baumannii ATCC 17978), evolved line 2) | Relative MIC ([2]; AB-SEN (Acinetobacter baumannii ATCC 17978), evolved line 3) | Relative MIC ([2]; AB-SEN (Acinetobacter baumannii ATCC 17978), evolved line 6) | Relative MIC [2, 25] | Relative MIC [2, 26] | Relative MIC [2, 28]
1.505: Relative MIC (log10) ([1]; EC-MDR (Escherichia coli NCTC 13846), evolved line 2 adapted to the named antibiotic) | Relative MIC (log10) [1, 3] | Relative MIC (log10) [1, 4] | Relative MIC (log10) [1, 5]
16: Relative MIC ([1]; EC-MDR (Escherichia coli NCTC 13846), evolved line 4) | Relative MIC ([1]; EC-MDR (Escherichia coli NCTC 13846), evolved line 8) | Relative MIC [1, 6] | Relative MIC [1, 9] | Relative MIC [1, 12] | Relative MIC ([1]; EC-MDR, Escherichia coli NCTC 13846, evolved line 1)
64: Relative MIC ([1]; EC-SEN (Escherichia coli ATCC 25922), evolved line 7) | Relative MIC [1, 17] | Relative MIC [1, 20] | Relative MIC ([1]; EC-SEN, Escherichia coli ATCC 25922, evolved line 2) | Relative MIC ([2]; AB-SEN (Acinetobacter baumannii ATCC 17978), evolved line 1) | Relative MIC ([2]; AB-SEN (Acinetobacter baumannii ATCC 17978), evolved line 4) | Relative MIC ([2]; AB-SEN (Acinetobacter baumannii ATCC 17978), evolved line 8) | Relative MIC ([2]; AB-SEN (Acinetobacter baumannii ATCC 17978), evolved line 9) | Relative MIC ([2]; AB-SEN (Acinetobacter baumannii ATCC 17978), evolved line 10) | Relative MIC ([2]; AB-SEN, Acinetobacter baumannii ATCC 17978, evolved line 1 versus ancestor) | Relative MIC [2, 27] | Relative MIC [2, 29] | Relative MIC [2, 30] | Relative MIC [2, 31] | Relative MIC [2, 32] | Relative MIC ([2]; AB-SEN, Acinetobacter baumannii ATCC 17978, evolved line 7)
1.204: Relative MIC (log10) ([1]; EC-MDR (Escherichia coli NCTC 13846), evolved line 4 adapted to the named antibiotic)
2.107: Relative MIC (log10) ([1]; EC-SEN (Escherichia coli ATCC 25922), evolved line 1 adapted to the named antibiotic) | Relative MIC (log10) [1, 15] | Relative MIC (log10) [1, 16]
32: Relative MIC ([1]; EC-MDR (Escherichia coli NCTC 13846), evolved line 2) | Relative MIC ([1]; EC-MDR (Escherichia coli NCTC 13846), evolved line 9) | Relative MIC ([1]; EC-MDR (Escherichia coli NCTC 13846), evolved line 10) | Relative MIC [1, 7] | Relative MIC [1, 10] | Relative MIC [1, 11] | Relative MIC [1, 13] | Relative MIC ([1]; EC-MDR, Escherichia coli NCTC 13846, evolved line 10 versus ancestor) | Relative MIC ([1]; EC-MDR, Escherichia coli NCTC 13846, evolved line 6) | Relative MIC ([1]; EC-MDR, Escherichia coli NCTC 13846, evolved line 7)
4: Relative MIC ([1]; EC-SEN (Escherichia coli ATCC 25922), evolved line 8) | Relative MIC [1, 21]
